In patent US9359341B2, “Aldehyde derivative of substitute oxazolidinones” (WANBURY LTD., priority 2012, dated 2016):

Legend:
plasma protein [1] = assay: Plasma protein binding (mouse); type: in vitro ADME
Method: (§1) A compound solution (1 mM in DMSO) (5 μL), according to the invention is added to the respective plasma matrices of rat or human or mouse (1 ml).
(§2) Add 150 ul of phosphate buffer to receiving side of the dialysis well. […] Precipitate with Acetonitrile and dilute samples prior to analysis in 1.5 ml polypropylene tubes. Remove 50 μl from the sample side of dialysis well and add 50 μl of phosphate buffer +300 μl of acetonitrile containing IS. Remove 50 μl from the buffer side of the dialysis well and add 50 μl of respective matrix plasma +300 μl of ACN. Then vortexed and centrifuged for 5 min, and supernatant is taken and injected into LCMS.
(§3) Different test concentration ranging from 0.1 μM to 20 μM are made in methanol:water (90:10). Test solutions are added to the premixed matrix containing plasma:phosphate buffer (50:50). Precipitate with 300 μl of ice cold acetonitrile containing IS, vortexes and centrifuged. Supernatant is taken and injected into LCMS. Percentage of plasma protein binding was obtained via Equation(2):% Fraction unbound=(concentration on the buffer side/concentration on the sample side)*100 Table-7

[2] = In vitro liver microsomal stability assay (mouse); type: in vitro ADME; conditions: mouse liver microsomes
Method: Liver microsomal stability assays are conducted at 1 mg per mL liver microsome protein with an NADPH in phosphate buffer (100 mM, pH 7.4). Test compounds (compound of formula B of the invention) are prepared as solutions in 20% methanol-water and added to the assay mixture (final assay concentration 1 μM) and incubated at 37° C. Aliquots (100.μ·L) are taken out at times 0, 15, and 30 minutes, and diluted with ice cold acetonitrile containing IS (200.mu·L) to stop the reactions. Samples are centrifuged at 10,000 RPM for 5 minutes to precipitate proteins. Supernatants are transferred to micro centrifuge tubes and stored at −20° C. for analysis of LC/MS/MS. The percent parent remaining of the test substance is calculated as Ratio of peak area at each time point to peak area ratio at zero min, multiplied by 100. The compound formula (B) is converted to Rivaroxaban in microsomal assay.

CYP2D6 = CYP2D6 (Homo sapiens (Human), UniProt P10635); assay: CYP inhibition assay; type: in vitro ADME; conditions: pooled human liver microsomes; extrapolated IC50 derived from 3 μM; read-out: IC50 (μM) of CYP isoforms, 2D6
Chain of CYP2D6 (P10635 whole entry, canonical isoform): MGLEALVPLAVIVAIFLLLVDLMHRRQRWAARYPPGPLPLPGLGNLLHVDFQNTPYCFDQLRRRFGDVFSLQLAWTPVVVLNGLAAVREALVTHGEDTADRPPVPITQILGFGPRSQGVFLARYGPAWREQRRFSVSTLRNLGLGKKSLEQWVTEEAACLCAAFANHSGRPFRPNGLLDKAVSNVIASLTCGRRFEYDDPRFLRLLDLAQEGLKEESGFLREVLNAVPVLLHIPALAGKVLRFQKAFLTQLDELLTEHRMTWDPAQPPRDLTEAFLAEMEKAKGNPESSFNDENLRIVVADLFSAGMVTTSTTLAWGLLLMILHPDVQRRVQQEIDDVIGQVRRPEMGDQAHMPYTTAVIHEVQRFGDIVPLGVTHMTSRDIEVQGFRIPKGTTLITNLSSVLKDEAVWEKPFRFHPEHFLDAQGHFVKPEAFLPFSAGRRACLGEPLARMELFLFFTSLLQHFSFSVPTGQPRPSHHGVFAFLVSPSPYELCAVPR
Method: (§4) The ability of substances to inhibit CYP1A2, CYP2C9, CYP2D6, CYP2C19, CYP2J2 and CYP3A4 in humans was investigated with pooled human liver microsomes as enzyme source in the presence of standard substrates (see below) which form CYP-isoform-specific metabolites.
(§5) Standard incubation mixtures comprise NADPH and substrates in 100 mM phosphate buffer (pH 7.4) in a total volume of 200 μl. Test compound are dissolved in acetonitrile. Incubated with pooled human liver microsomes at 37° C. for a defined time. The reactions are stopped by adding 100 μl of acetonitrile in which a suitable internal standard is always present. Precipitated proteins are removed by centrifugation, and the supernatants analyzed by LC-MS/MS. The data represents the extrapolated IC50 (μM) concentration derived from 3 μM.

CYP2C9 = CYP2C9 (Homo sapiens (Human), UniProt P11712); assay: CYP inhibition assay; type: in vitro ADME; conditions: pooled human liver microsomes; extrapolated IC50 derived from 3 μM; read-out: IC50 (μM) of CYP isoforms, 2C9
Chain of CYP2C9 (P11712 whole entry, canonical isoform): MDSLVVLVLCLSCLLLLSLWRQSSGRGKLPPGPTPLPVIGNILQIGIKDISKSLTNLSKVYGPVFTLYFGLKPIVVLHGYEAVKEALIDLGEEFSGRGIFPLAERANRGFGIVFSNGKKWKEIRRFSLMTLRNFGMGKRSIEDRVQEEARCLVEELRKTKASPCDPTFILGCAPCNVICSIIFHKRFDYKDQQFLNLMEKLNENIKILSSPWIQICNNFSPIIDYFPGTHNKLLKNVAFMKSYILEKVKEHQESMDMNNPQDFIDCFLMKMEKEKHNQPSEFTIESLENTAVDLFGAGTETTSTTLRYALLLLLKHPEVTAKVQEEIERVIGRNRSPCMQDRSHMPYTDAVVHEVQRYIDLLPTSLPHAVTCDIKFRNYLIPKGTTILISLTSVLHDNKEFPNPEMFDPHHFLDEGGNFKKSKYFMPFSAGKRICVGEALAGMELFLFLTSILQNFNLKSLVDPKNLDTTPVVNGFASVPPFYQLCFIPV
Method: as §4, §5

CYP2J2 = CYP2J2 (Homo sapiens (Human), UniProt P51589); assay: CYP inhibition assay; type: in vitro ADME; conditions: pooled human liver microsomes; extrapolated IC50 derived from 3 μM; read-out: IC50 (μM) of CYP isoforms, 2J2
Chain of CYP2J2 (P51589 whole entry, canonical isoform): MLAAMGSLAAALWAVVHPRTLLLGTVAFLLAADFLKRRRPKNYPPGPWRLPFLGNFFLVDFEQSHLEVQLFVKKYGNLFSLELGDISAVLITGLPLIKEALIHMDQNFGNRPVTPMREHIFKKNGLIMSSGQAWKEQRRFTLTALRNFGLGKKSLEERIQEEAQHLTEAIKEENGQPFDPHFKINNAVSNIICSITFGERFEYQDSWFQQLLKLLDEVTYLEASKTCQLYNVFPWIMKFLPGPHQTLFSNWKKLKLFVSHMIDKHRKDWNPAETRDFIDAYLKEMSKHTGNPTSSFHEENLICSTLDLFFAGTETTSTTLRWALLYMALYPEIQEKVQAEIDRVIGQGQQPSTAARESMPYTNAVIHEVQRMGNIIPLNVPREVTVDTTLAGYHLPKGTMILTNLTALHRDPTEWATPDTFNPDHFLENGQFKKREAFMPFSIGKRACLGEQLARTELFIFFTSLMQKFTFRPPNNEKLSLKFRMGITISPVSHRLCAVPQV
Method: as §4, §5

CYP2C19 = CYP2C19 (Homo sapiens (Human), UniProt P33261); assay: CYP inhibition assay; type: in vitro ADME; conditions: pooled human liver microsomes; extrapolated IC50 derived from 3 μM; read-out: IC50 (μM) of CYP isoforms, 2C19
Chain of CYP2C19 (P33261 whole entry, canonical isoform): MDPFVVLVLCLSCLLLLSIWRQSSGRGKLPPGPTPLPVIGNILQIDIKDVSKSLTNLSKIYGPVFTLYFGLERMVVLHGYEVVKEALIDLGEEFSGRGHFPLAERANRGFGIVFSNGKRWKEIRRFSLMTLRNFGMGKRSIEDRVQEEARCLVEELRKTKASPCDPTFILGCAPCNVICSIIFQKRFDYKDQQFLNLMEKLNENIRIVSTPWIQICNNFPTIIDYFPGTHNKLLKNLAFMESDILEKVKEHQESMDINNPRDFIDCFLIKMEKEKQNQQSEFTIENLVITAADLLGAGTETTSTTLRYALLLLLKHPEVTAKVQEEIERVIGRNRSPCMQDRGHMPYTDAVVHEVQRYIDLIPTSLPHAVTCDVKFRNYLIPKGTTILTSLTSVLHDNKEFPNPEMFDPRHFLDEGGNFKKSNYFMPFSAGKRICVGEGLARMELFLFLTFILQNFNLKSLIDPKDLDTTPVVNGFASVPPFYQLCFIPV
Method: as §4, §5

plasma protein [3] = assay: Plasma protein binding (rat); type: in vitro ADME
Method: as §1, §2, §3

[4] = Intravenous and oral excretion profile in Wistar rats; type: in vivo
Method: On the day before administration of the substance, a catheter for obtaining blood is implanted in the jugular vein of the experimental animals (male Wistar rats, body weight 200-250 g) under Isoflurane. anesthesia.
Urine and faeces are taken collected from metabolic cages over the course of 144 h after administration of the substance. The administration volume is 10 ml/kg for oral and 1 ml/kg for IV in male Wistar rats. Intravenous administration is via a formulation of 2% N—N Dimethyl acetamide/ethanol 10%/PEG400 (30%)/water for IV injection (58%) and via Tween80/PEG400/sterile water in the case of oral administration. Urine and faeces collection is 0-4, 4-8, 8-24, 24-48, 48-72, 72-96, 96-120, 120-144 in the case of IV and for oral administration.
Urine and faeces was processed and IS containing Acetonitrile is added to a defined urine/faeces and precipitated. After centrifugation, compound formula (B) and, where appropriate, known cleavage products of the compound formula (B) in the supernatant are determined quantitatively using a suitable LC/MS-MS method.
The measured urine and faeces concentrations are used to calculate parameters of the test substance and of the active ingredient compound (A) liberated there from, such as AUC and Cmax.
Acetonitrile containing IS is added to the study samples, calibration samples and QCs, and the protein is precipitated using acetonitrile. Vortexed and centrifuged and the supernatant is injected by LC-MS/MS (API 4000, AB Sciex). Chromatographic separation is carried out on an Shimadzu UFLC. The injection volume is 10 μl. The separation column used is a Phenomenex Gemini NX 4.6×5μ. 100 mm, adjusted to a temperature of 30° C. A binary mobile phase gradient at 800.mu·l/min is used (A: 0.1% formic acid in water, B: acetonitrile: API 4000, ESI Agilent 1100 column: Gemini Nx 100 mm×4.6 mm 5.μ; column temperature: 30° C.; eluent A: 0.1% formic acid in water, eluent B: acetonitrile; gradient: 0-2.5 min 95% A, 5% B; 2.5-2.6 min 5% A, 95% B; 2.6-4.2 min 95% A, 5% B; flow rate: 0.8 ml/min; ESI. Q1:464.098, Q3:144.255 The temperature of the Turbo V ion source is 500° C. The following MS instrument parameters are used: curtain gas 20 units, ion spray voltage 5 kV, gas 1 50 units gas 2 50 units, CAD gas 6 units. The substances are quantified by peak heights or areas using extracted ion chromatograms of specific MRM experiments.

In the case of O=CN(C[C@H]1CN(c2ccc(N3CCOCC3=O)cc2)C(=O)O1)C(=O)c1ccc(Cl)s1 [Compound formula B, 5-chloro-N-formyl-N-({(5S)-2-oxo-3-[4-(3-oxomorpholin-4-yl)phenyl]-1,3-oxazolidin-5-yl}methyl)thiophene-2-carboxamide], the “Observation: amount of test product” value (plasma protein [1]) is reported as “Not quantificable amount”, the “Observation: formed Rivaroxaban bound to plasma protein” value (plasma protein [1]) is reported as “found to be moderate-High” and the “Observation (metabolism; for Test Product: of the formed rivaroxaban)” value [2] is reported as “shown metabolism”. For the same compound, the “amount of test product detected” value ([2]; metabolised to rivaroxaban from zero min) was “min. Neglible”, the IC50 (CYP2D6) was 8.2 µM and the IC50 (CYP2C9) was 22.4 µM. For the same compound, the IC50 (CYP2J2) was 6.7 µM, the IC50 (CYP2C19) was 25.3 µM and the “Observation: amount of test product” value (plasma protein [3]) was “Not quantificable amount”. For the same compound, the “Observation: formed Rivaroxaban bound to plasma protein” value (plasma protein [3]) was “found to be moderate-High”, the “Mean (ng/G) Faeces” value ([4]; IV 1 mg/Kg, rivaroxaban in faeces, 144 h) was “BLQ” and the “Mean (ng) Urine” value ([4]; IV 1 mg/Kg, rivaroxaban in urine, 120 h) was “BLQ”. For the same compound, the “amount of rivaroxaban present in faeces as compared to rivaroxaban alone” value ([4]; Wistar rats) was “lesser amount of rivaroxaban present in faeces” and the “detectability of test substance in urine and faeces” value ([4]; after i.v. administration, at the first measurement point) was “no longer detectable in urine and faeces”.
